Assay results published in the supplement of paper PMC11061612.

Columns and labels:
Test in all cases: combination Emax (second highest fraction inhibited in the dose matrix, 72 h); higher = more inhibition; extreme values may be limits of the assay
[1] = system: KYSE-220 (Esophageal Squamous Cell Carcinoma)
Summary of the method: (§1)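 Bliss excess equals the observed combination effect minus the expected value EA + EB − EA·EB, where EA and EB are the effects of each agent alone. Combination Emax is the second-highest inhibition within the matrix. Inhibition was scaled from CellTiter-Glo 2.0 luminescence, with 0 set by vehicle wells and 1 by blank wells, after 72 hours of two-drug dosing of cells plated in 1536-well plates.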

[2] = system: CGTH-W-1 (Thyroid Gland Carcinoma)
Summary of the method: as §1

[3] = system: 22RV1 (Prostate Carcinoma)
Summary of the method: as §1

[4] = system: GA-10 (Burkitt's Lymphoma)
Summary of the method: as §1

5637 (Bladder Carcinoma) = system: 5637 (Bladder Carcinoma)
Summary of the method: as §1

A204 (Rhabdomyosarcoma) = system: A204 (Rhabdomyosarcoma)
Summary of the method: as §1

[5] = system: ESO26 (Esophageal Adenocarcinoma)
Summary of the method: as §1

COLO-792 (Melanoma) = system: COLO-792 (Melanoma)
Summary of the method: as §1

[6] = system: Jurkat (T-Lymphoblastic Leukemia)
Summary of the method: as §1

AU565 (Breast Carcinoma) = system: AU565 (Breast Carcinoma)
Summary of the method: as §1

[7] = system: OACp4C (Esophageal Adenocarcinoma)
Summary of the method: as §1

EW-16 (Ewing's Sarcoma) = system: EW-16 (Ewing's Sarcoma)
Summary of the method: as §1

[8] = system: NCI-H2228 (Lung Adenocarcinoma)
Summary of the method: as §1

[9] = system: JIMT-1 (Breast Carcinoma)
Summary of the method: as §1

[10] = system: A2780 (Ovarian Carcinoma)
Summary of the method: as §1

[11] = system: EPLC-272H (Other Solid Carcinomas)
Summary of the method: as §1

[12] = system: NCI-H1703 (Squamous Cell Lung Carcinoma)
Summary of the method: as §1

A101D (Melanoma) = system: A101D (Melanoma)
Summary of the method: as §1

[13] = system: NCI-H1651 (Lung Adenocarcinoma)
Summary of the method: as §1

[14] = system: huH-1 (Hepatocellular Carcinoma)
Summary of the method: as §1

Structure (SMILES): Cc1c2c(nn1C)CSCc1cc(n(C)n1)CSc1cc(c3ccccc3c1)OCCCc1c(C(=O)O)n(C)c3c-2c(Cl)ccc13 [AZD5991] + C=CCn1c(=O)c2cnc(Nc3ccc(N4CCN(C)CC4)cc3)nc2n1-c1cccc(C(C)(C)O)n1 [AZD1775] (first compound max 1 µM, partner max 1 µM)
- combination Emax [1]: 0.848
- combination Emax [2]: 0.19
- combination Emax [3]: 0.453
- combination Emax [4]: 1
- combination Emax (5637 (Bladder Carcinoma)): 0.954
- combination Emax (A204 (Rhabdomyosarcoma)): 0.829
- combination Emax [5]: 0.683
- combination Emax (COLO-792 (Melanoma)): 0.988
- combination Emax [6]: 0.972
- combination Emax (AU565 (Breast Carcinoma)): 1
- combination Emax [7]: 0.951
- combination Emax (EW-16 (Ewing's Sarcoma)): 0.507
- combination Emax [8]: 0.55
- combination Emax [9]: 0.763
- combination Emax [10]: 0.858
- combination Emax [11]: 0.971
- combination Emax [12]: 0.954
- combination Emax (A101D (Melanoma)): 1
- combination Emax [13]: 0.813
- combination Emax [14]: 0.552

Structure (SMILES): Cc1c2c(nn1C)CSCc1cc(n(C)n1)CSc1cc(c3ccccc3c1)OCCCc1c(C(=O)O)n(C)c3c-2c(Cl)ccc13 [AZD5991] + CN(C)CCCOc1ccc(-c2ccc3ncc4c(c3c2)n(C2CCOCC2)c(=O)n4C)cn1 [AZD0156] (first compound max 1 µM, 7x7, partner max 1 µM)
- combination Emax [1]: 0.278
- combination Emax [2]: 0.19
- combination Emax [3]: 0.476
- combination Emax [4]: 0.776
- combination Emax (5637 (Bladder Carcinoma)): 0.216
- combination Emax (A204 (Rhabdomyosarcoma)): 0.729
- combination Emax [5]: 0.269
- combination Emax (COLO-792 (Melanoma)): 1
- combination Emax [6]: 0.928
- combination Emax (AU565 (Breast Carcinoma)): 1
- combination Emax [7]: 0.469
- combination Emax (EW-16 (Ewing's Sarcoma)): 0.29
- combination Emax [8]: 0.307
- combination Emax [9]: 0.225
- combination Emax [10]: 0.682
- combination Emax [11]: 0.936
- combination Emax [12]: 0.892
- combination Emax (A101D (Melanoma)): 1
- combination Emax [13]: 0.212
- combination Emax [14]: 0.24

Structure (SMILES): CN(CCO)CC[C@H](CSc1ccccc1)Nc1ccc(S(=O)(=O)NC(=O)c2ccc(N3CCC([C@@H](O)c4ccccc4-c4ccc(Cl)cc4)CC3)cc2)cc1S(=O)(=O)C(F)(F)F [AZD4320] + CN(C)CCCOc1ccc(-c2ccc3ncc4c(c3c2)n(C2CCOCC2)c(=O)n4C)cn1 [AZD0156] (first compound max 1 µM, 7x7, partner max 1 µM)
- combination Emax [1]: 0.14
- combination Emax [2]: 0.119
- combination Emax [3]: 0.385
- combination Emax [4]: 0.303
- combination Emax (5637 (Bladder Carcinoma)): 0.222
- combination Emax (A204 (Rhabdomyosarcoma)): 0.223
- combination Emax [5]: 0.153
- combination Emax (COLO-792 (Melanoma)): 0.856
- combination Emax [6]: 0.478
- combination Emax (AU565 (Breast Carcinoma)): 0.253
- combination Emax [7]: 0.851
- combination Emax (EW-16 (Ewing's Sarcoma)): 0.406
- combination Emax [8]: 0.278
- combination Emax [9]: 0.171
- combination Emax [10]: 0.383
- combination Emax [11]: 0.439
- combination Emax [12]: 0.367
- combination Emax (A101D (Melanoma)): 0.413
- combination Emax [13]: 0.0674
- combination Emax [14]: 0.122

Structure (SMILES): CC1(C)CCC(CN2CCN(c3ccc(C(=O)NS(=O)(=O)c4ccc(NCC5CCOCC5)c([N+](=O)[O-])c4)c(Oc4cnc5[nH]ccc5c4)c3)CC2)=C(c2ccc(Cl)cc2)C1 [Venetoclax] + C1CN(CCC1(C(=O)N[C@@H](CCO)C2=CC=C(C=C2)Cl)N)C3=NC=NC4=C3C=CN4 [Capivasertib] (first compound max 1 µM, 7x7, partner max 3 µM)
- combination Emax [1]: 0.223
- combination Emax [2]: 0.215
- combination Emax [3]: 0.484
- combination Emax [4]: 0.584
- combination Emax (5637 (Bladder Carcinoma)): 0.168
- combination Emax (A204 (Rhabdomyosarcoma)): 0.335
- combination Emax [5]: 0.311
- combination Emax (COLO-792 (Melanoma)): 0.381
- combination Emax [6]: 0.639
- combination Emax (AU565 (Breast Carcinoma)): 0.46
- combination Emax [7]: 0.634
- combination Emax (EW-16 (Ewing's Sarcoma)): 0.236
- combination Emax [8]: 0.405
- combination Emax [9]: 0.188
- combination Emax [10]: 0.61
- combination Emax [11]: 0.562
- combination Emax [12]: 0.384
- combination Emax (A101D (Melanoma)): 0.283
- combination Emax [13]: 0.159
- combination Emax [14]: 0.2

Structure (SMILES): CCc1c2c(nc3ccc(O)cc13)-c1cc3c(c(=O)n1C2)COC(=O)[C@]3(O)CC [SN-38] + O=C(c1cc(Cc2n[nH]c(=O)c3ccccc23)ccc1F)N1CCN(C(=O)C2CC2)CC1 [Olaparib] (first compound max 0.3 µM, 7x7, partner max 10 µM)
- combination Emax [1]: 0.99
- combination Emax [2]: 0.768
- combination Emax [3]: 0.697
- combination Emax [5]: 0.764
- combination Emax (COLO-792 (Melanoma)): 0.484
- combination Emax (AU565 (Breast Carcinoma)): 0.891
- combination Emax [7]: 0.637
- combination Emax (EW-16 (Ewing's Sarcoma)): 0.981
- combination Emax [9]: 0.267
- combination Emax [10]: 0.777
- combination Emax [11]: 0.856
- combination Emax [12]: 0.882
- combination Emax (A101D (Melanoma)): 0.757
- combination Emax [13]: 0.902
- combination Emax [14]: 0.794

Structure (SMILES): Cc1c2c(nn1C)CSCc1cc(n(C)n1)CSc1cc(c3ccccc3c1)OCCCc1c(C(=O)O)n(C)c3c-2c(Cl)ccc13 [AZD5991] + CCN(CCO)CCCOc1ccc2c(Nc3cc(CC(=O)Nc4cccc(F)c4)[nH]n3)ncnc2c1 [AZD2811] (first compound max 1 µM, 7x7, partner max 1 µM)
- combination Emax [1]: 0.308
- combination Emax [2]: 0.521
- combination Emax [3]: 0.399
- combination Emax [4]: 0.923
- combination Emax (5637 (Bladder Carcinoma)): 0.91
- combination Emax (A204 (Rhabdomyosarcoma)): 0.688
- combination Emax [5]: 0.319
- combination Emax (COLO-792 (Melanoma)): 0.977
- combination Emax [6]: 0.919
- combination Emax (AU565 (Breast Carcinoma)): 1
- combination Emax [7]: 0.827
- combination Emax (EW-16 (Ewing's Sarcoma)): 0.808
- combination Emax [8]: 0.296
- combination Emax [10]: 0.802
- combination Emax [11]: 0.945
- combination Emax [12]: 0.874
- combination Emax (A101D (Melanoma)): 0.998
- combination Emax [13]: 0.356
- combination Emax [14]: 0.387

Structure (SMILES): Cc1c2c(nn1C)CSCc1cc(n(C)n1)CSc1cc(c3ccccc3c1)OCCCc1c(C(=O)O)n(C)c3c-2c(Cl)ccc13 [AZD5991] + CC1(C)CCC(CN2CCN(c3ccc(C(=O)NS(=O)(=O)c4ccc(NCC5CCOCC5)c([N+](=O)[O-])c4)c(Oc4cnc5[nH]ccc5c4)c3)CC2)=C(c2ccc(Cl)cc2)C1 [Venetoclax] (first compound max 1 µM, 7x7, partner max 1 µM)
- combination Emax [1]: 0.181
- combination Emax [2]: 0.257
- combination Emax [3]: 0.462
- combination Emax [4]: 0.64
- combination Emax (5637 (Bladder Carcinoma)): 0.217
- combination Emax (A204 (Rhabdomyosarcoma)): 0.513
- combination Emax [5]: 0.151
- combination Emax (COLO-792 (Melanoma)): 0.997
- combination Emax [6]: 0.888
- combination Emax (AU565 (Breast Carcinoma)): 1
- combination Emax [7]: 0.74
- combination Emax (EW-16 (Ewing's Sarcoma)): 0.273
- combination Emax [8]: 0.184
- combination Emax [9]: 0.215
- combination Emax [10]: 0.817
- combination Emax [11]: 0.901
- combination Emax (A101D (Melanoma)): 0.989
- combination Emax [13]: 0.213
- combination Emax [14]: 0.162
